Test results reported in PMC4784473 (Bioorganic & medicinal chemistry letters, 2008).

Columns and labels:
Vero cells = assay: Vero cell cytotoxicity; format: cell-based; details: Vero cell toxicity versus M. tuberculosis growth inhibition
M. tuberculosis DXS = M. tuberculosis DXS (Mycobacterium tuberculosis, UniProt P9WNS3); assay: biochemical; format: biochemical; details: for inhibitory activity against M. tuberculosis DXS (in words): SAR discussion
Chain of M. tuberculosis DXS (P9WNS3 whole entry): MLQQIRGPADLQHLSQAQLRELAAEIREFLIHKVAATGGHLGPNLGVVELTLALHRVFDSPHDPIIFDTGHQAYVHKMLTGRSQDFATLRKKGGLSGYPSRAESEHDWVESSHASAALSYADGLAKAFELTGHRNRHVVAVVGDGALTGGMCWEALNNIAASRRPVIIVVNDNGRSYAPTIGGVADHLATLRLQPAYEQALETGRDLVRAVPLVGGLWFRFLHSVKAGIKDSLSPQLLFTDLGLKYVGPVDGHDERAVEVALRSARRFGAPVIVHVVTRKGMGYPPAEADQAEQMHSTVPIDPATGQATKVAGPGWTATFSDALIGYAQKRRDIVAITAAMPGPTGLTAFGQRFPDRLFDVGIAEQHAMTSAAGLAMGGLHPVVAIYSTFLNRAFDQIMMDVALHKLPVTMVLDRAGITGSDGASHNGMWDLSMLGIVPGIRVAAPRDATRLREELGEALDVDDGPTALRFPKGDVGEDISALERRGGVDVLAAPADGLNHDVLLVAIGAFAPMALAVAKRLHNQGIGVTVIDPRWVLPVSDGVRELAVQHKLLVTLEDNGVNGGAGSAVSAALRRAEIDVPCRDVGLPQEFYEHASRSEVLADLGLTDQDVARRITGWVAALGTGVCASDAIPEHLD

SMILES	inhibitory activity against M. tuberculosis DXS (in words) (M. tuberculosis DXS)	further results
COc1ccc(-c2cc(=O)n3nc(C)c(-c4ccc(Cl)cc4)c3[nH]2)cc1 [Compound 18]	–	selectivity index (Vero cells): 2.1
CCOC(=O)Cc1c(C)nc2c(-c3ccccc3)cnn2c1O [Compound 4]	lost its activity	–
Cc1cc(=O)n2ncc(-c3ccc(Cl)cc3)c2[nH]1 [Compound 3]	inhibitory activity was abolished	–
COCc1cc(=O)n2ncc(-c3ccc(Cl)cc3)c2[nH]1 [Compound 2]	inhibitory activity was abolished	–
COc1ccc(-c2cc(=O)n3nc(C)c(-c4ccc(F)cc4)c3[nH]2)cc1 [Compound 19, 2-methyl-3-(4-fluorophenyl)-5-(4-meth-oxy-phenyl)-4H-pyrazolo[1,5-a]pyrimidin-7-one]	–	selectivity index (Vero cells): 4.6
CCCc1c(-c2ccccc2)[nH]c2c(-c3ccccc3)c(C)nn2c1=O [Compound 27]	–	IC50 (M. tuberculosis DXS): 71.9 ± 10.1 µM
COCc1cc(=O)n2nc(C)c(-c3ccc(Cl)cc3)c2[nH]1 [Compound 25]	loss in activity	–
